The source of these data is ChEMBL document CHEMBL1126299, “Synthesis and structure-activity relationships of cephalosporins with C-3' catechol-containing residues” (J Med Chem, 1992).

Data set [1] in a line: The compound was evaluated for area under the curve. The format is ADME.
Data set [2] is described as follows: The half life period was tested. The format is ADME.
In data set [3] the test system is Citrobacter freundii. As to the kind of experiment: microbe, parasite or virus in culture.
Description: Minimum inhibitory concentration in Citrobacter freundii, DR 382031 constitutive depressed type 1
Data set [4] deals with Citrobacter freundii. As to the kind of experiment: microbe, parasite or virus in culture. This is another data set of the same source.
Description: Minimum inhibitory concentration in Citrobacter freundii, I+382010 inducible type 1 lactamase producer
The test system of data set [5] is Pseudomonas aeruginosa. The data set can be described thus: microbe, parasite or virus in culture.
Description: Minimum inhibitory concentration in Pseudomonas aeruginosa, 18S inducible type 1 lactamase producer
Data set [6] deals with Pseudomonas aeruginosa. As to the kind of experiment: microbe, parasite or virus in culture. The source holds these as a separate data set.
Description: Minimum inhibitory concentration in Pseudomonas aeruginosa,799WT parent organism
Data set [7] deals with Providencia stuartii. As to the kind of experiment: microbe, parasite or virus in culture.
Description: Minimum inhibitory concentration in Pseudomonas stuartii, DR 442049 constitutive depressed type 1 lactamase producer
Data set [8] concerns Providencia stuartii. The data set can be described thus: microbe, parasite or virus in culture. This is another data set of the same source.
Description: Minimum inhibitory concentration in Pseudomonas stuartii, I+442019 inducible type 1 lactamase producer
In data set [9] the test system is Pseudomonas aeruginosa. As to the kind of experiment: microbe, parasite or virus in culture. The source holds these as a separate data set.
Description: Minimum inhibitory concentration in Pseudomonas aeruginosa,799/61 permeability mutant
Data set [10] deals with Citrobacter freundii. The data set can be described thus: The compound was tested for minimum inhibitory concentration in Citrobacter freundii, DR 382031 constitutive depressed type 1. Type of data set: functional.
The test system of data set [11] is Citrobacter freundii. As to the kind of experiment: The compound was tested for minimum inhibitory concentration in Citrobacter freundii, I+382010 inducible type 1 lactamase producer. The format is functional.
Data set [12] relates to Enterobacter cloacae. As to the kind of experiment: The compound was tested for minimum inhibitory concentration in Enterobacter cloacae,I+401029 inducible type 1 lactamase producer. Type of data set: functional.
Data set [13] has as its system Enterobacter cloacae. As to the kind of experiment: The compound was tested for minimum inhibitory concentration in Enterobacter cloacae,P99- inducible type 1 lactamase producer. Type of data set: functional.
Data set [14] has as its system Pseudomonas aeruginosa. The data set can be described thus: The compound was tested for minimum inhibitory concentration in Pseudomonas aeruginosa,18S inducible type 1 lactamase producer. Type of data set: functional.
Data set [15] relates to Providencia stuartii. As to the kind of experiment: The compound was tested for minimum inhibitory concentration in Pseudomonas stuartii,I+442019 inducible type 1 lactamase producer. Type of data set: functional.
Data set [16] deals with Enterobacter cloacae. The data set can be described thus: microbe, parasite or virus in culture.
Description: Minimum inhibitory concentration in Enterobacter cloacae, DR 401108 constitutive depressed type 1 lactamase producer
In data set [17] the test system is Enterobacter cloacae. The data set can be described thus: microbe, parasite or virus in culture. The source holds these as a separate data set.
Description: Minimum inhibitory concentration in Enterobacter cloacae, P99+ constitutive depressed type 1 lactamase producer
The test system of data set [18] is Pseudomonas aeruginosa. The data set can be described thus: microbe, parasite or virus in culture. This is another data set of the same source.
Description: Minimum inhibitory concentration in Pseudomonas aeruginosa, 18SH constitutive depressed type 1 lactamase producer
The species named for the next data set is Homo sapiens. As to the kind of experiment: Compound is evaluated for serum protein binding in human blood (protein binding in marmoset blood). Type of data set: functional.
Data set [19] concerns Staphylococcus aureus. The data set can be described thus: The compound was tested for minimum inhibitory concentration in Staphylococcus aureus Oxford penicillin sensitive Staphylococcus aureus. The format is functional.
For data set [20], the system named is Staphylococcus aureus. The data set can be described thus: The compound was tested for minimum inhibitory concentration in Staphylococcus aureus,147N penicillin sensitive Staphylococcus aureus. Type of data set: functional.
Data set [21] is described as follows: The compound was tested for % urinary recovery in marmosets at the dose of 3 mg/kg. The format is ADME, organism-based. Details: dose 3 mg/kg. The conditions noted are these: callithrix, urine, read-out: Recovery.
Data set [22] has as its system Escherichia coli. The data set can be described thus: microbe, parasite or virus in culture.
Description: In vitro minimum inhibitory concentration against Escherichia coli (DC0 parent organism).
For data set [23], the system named is Enterobacter cloacae. The data set can be described thus: microbe, parasite or virus in culture. The source holds these as a separate data set.
Description: Minimum inhibitory concentration in Enterobacter cloacae, I+401029 inducible type 1 lactamase producer
The test system of data set [24] is Enterobacter cloacae. The data set can be described thus: microbe, parasite or virus in culture. The source holds these as a separate data set.
Description: Minimum inhibitory concentration in Enterobacter cloacae, P99- inducible type 1 lactamase producer
Data set [25] concerns Escherichia coli. As to the kind of experiment: microbe, parasite or virus in culture. This is another data set of the same source.
Description: In vitro minimum inhibitory concentration against Escherichia coli (DC2 permeability mutant).
Data set [26] concerns Pseudomonas aeruginosa. The data set can be described thus: microbe, parasite or virus in culture. The source holds these as a separate data set.
Description: In vitro minimum inhibitory concentration against Pseudomonas aeruginosa (PU21).
Data set [27] deals with Citrobacter freundii. The data set can be described thus: The compound was tested for minimum inhibitory concentration in Citrobacter freundii,I+382010 inducible type 1 lactamase producer. Type of data set: functional.
Data set [28] concerns Pseudomonas aeruginosa. As to the kind of experiment: The compound was tested for minimum inhibitory concentration in Pseudomonas aeruginosa,799/61 permeability mutant. Type of data set: functional.
The test system of data set [29] is Pseudomonas aeruginosa. As to the kind of experiment: The compound was tested for minimum inhibitory concentration in Pseudomonas aeruginosa,799WT parent organism. Type of data set: functional.
Data set [30] is described as follows: The compound was evaluated for area under the curve in marmosets. Type of data set: ADME. The conditions noted are these: callithrix, in vivo.
A short description of data set [31]: The half life period in marmosets. The format is ADME. The settings on record: callithrix, in vivo.
The target of data set [32] is Beta-lactamase TEM (Escherichia coli) (UniProt P62593). As to the kind of experiment: The dissociation constant of compound was tested for beta-Lactamase stability.
The subject of data set [33] is Staphylococcus aureus. As to the kind of experiment: microbe, parasite or virus in culture.
Data set [34] relates to Staphylococcus aureus. As to the kind of experiment: microbe, parasite or virus in culture. The source holds these as a separate data set.

Structures are written as SMILES. In brackets after ≈: the same amount, converted by molar mass.

Beta-lactamase TEM (Escherichia coli), sequence (P62593 whole entry): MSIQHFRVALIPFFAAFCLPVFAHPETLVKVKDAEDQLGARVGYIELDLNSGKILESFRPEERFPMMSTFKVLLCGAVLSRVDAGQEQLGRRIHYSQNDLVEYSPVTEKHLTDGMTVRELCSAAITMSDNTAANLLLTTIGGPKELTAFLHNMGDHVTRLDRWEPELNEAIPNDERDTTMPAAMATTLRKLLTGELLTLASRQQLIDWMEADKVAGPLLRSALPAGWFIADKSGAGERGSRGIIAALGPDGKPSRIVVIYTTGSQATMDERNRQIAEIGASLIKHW

Take `CC(C)(O/N=C(\C(=O)N[C@@H]1C(=O)N2C(C(=O)[O-])=C(C[n+]3ccccc3)CS[C@H]12)c1csc(N)n1)C(=O)O` [CEFTAZIDIME]: the AUC in [1] stood at 14 mg/h/L. In data set [2], this compound showed a half-life of 0.7 h. In addition, the MIC with Citrobacter freundii [3] turned out to be 128 µg/mL (≈ 234 µM); against Citrobacter freundii [4] it was 0.125 µg/mL (≈ 0.229 µM); against Pseudomonas aeruginosa [5], 2 µg/mL (≈ 3.66 µM); against Pseudomonas aeruginosa [6], 0.125 µg/mL (≈ 0.229 µM); with Providencia stuartii [7] it was 4 µg/mL (≈ 7.32 µM); against Providencia stuartii [8], 0.25 µg/mL (≈ 0.457 µM). For the same compound, the MIC against Pseudomonas aeruginosa [9] turned out to be 0.008 µg/mL (≈ 0.0146 µM).
Regarding `CC(C)(O/N=C(\C(=O)N[C@@H]1C(=O)N2C(C(=O)O)=C(CNC(=O)c3ccc4cc(O)c(O)cc4c3)CSC12)c1csc(N)n1)C(=O)O` (some centres undefined), the MIC against Citrobacter freundii [10] turned out to be 16 µg/mL (≈ 23.9 µM); in the data set on Citrobacter freundii [11] it was 0.008 µg/mL (≈ 0.0119 µM); in the data set on Enterobacter cloacae [12] it was 0.125 µg/mL (≈ 0.186 µM); in the data set with Enterobacter cloacae [13], 0.125 µg/mL (≈ 0.186 µM); against Pseudomonas aeruginosa [14] it was 0.008 µg/mL (≈ 0.0119 µM); against Providencia stuartii [15], 0.25 µg/mL (≈ 0.373 µM). Further, the MIC in the data set on Enterobacter cloacae [16] is > 128 µg/mL; in the data set on Enterobacter cloacae [17], 16 µg/mL (≈ 23.9 µM); in the data set with Pseudomonas aeruginosa [18] it was 0.125 µg/mL (≈ 0.186 µM); against Pseudomonas aeruginosa [6], 0.03 µg/mL (≈ 0.0447 µM); with Providencia stuartii [7], 8 µg/mL (≈ 11.9 µM); against Pseudomonas aeruginosa [9], 0.008 µg/mL (≈ 0.0119 µM).
For the compound `CC(C)(O/N=C(\C(=O)N[C@@H]1C(=O)N2C(C(=O)O)=C(CCNC(=O)c3cc(O)c(O)c(Br)c3)CSC12)c1csc(N)n1)C(=O)O` (some centres undefined), the MIC in the data set with Citrobacter freundii [10] was determined as 1 µg/mL (≈ 1.4 µM); in the data set on Staphylococcus aureus [19] it was 16 µg/mL (≈ 22.4 µM); in the data set on Staphylococcus aureus [20], 16 µg/mL (≈ 22.4 µM); in the data set on Citrobacter freundii [4], 0.008 µg/mL (≈ 0.0112 µM); against Enterobacter cloacae [16], 8 µg/mL (≈ 11.2 µM); against Escherichia coli [22], 0.008 µg/mL (≈ 0.0112 µM). Also, the MIC against Enterobacter cloacae [17] amounted to 2 µg/mL (≈ 2.8 µM); against Enterobacter cloacae [23], 0.015 µg/mL (≈ 0.021 µM); in the data set on Enterobacter cloacae [24], 0.03 µg/mL (≈ 0.042 µM); against Escherichia coli [25], 0.008 µg/mL (≈ 0.0112 µM); in the data set with Pseudomonas aeruginosa [5], 0.008 µg/mL (≈ 0.0112 µM); in the data set with Pseudomonas aeruginosa [26], 0.008 µg/mL (≈ 0.0112 µM). In addition, the MIC in the data set on Pseudomonas aeruginosa [18] is 0.015 µg/mL (≈ 0.021 µM); with Pseudomonas aeruginosa [6] it was 0.008 µg/mL (≈ 0.0112 µM); with Providencia stuartii [7], 4 µg/mL (≈ 5.61 µM); in the data set with Providencia stuartii [8], 0.25 µg/mL (≈ 0.35 µM); in the data set on Pseudomonas aeruginosa [9], 0.008 µg/mL (≈ 0.0112 µM). The compound further gave an Activity in the data set listed under Homo sapiens of 99%. Also, in data set [21], the dose excreted came out at 17.5%.
On to `CC(C)(O/N=C(\C(=O)N[C@@H]1C(=O)N2C(C(=O)O)=C(CNC(=O)c3cnc4cc(O)c(O)cc4c3O)CSC12)c1csc(N)n1)C(=O)O` (some centres undefined), for which the MIC with Citrobacter freundii [10] amounted to 0.125 µg/mL (≈ 0.182 µM); in the data set on Citrobacter freundii [27], 0.008 µg/mL (≈ 0.0116 µM); with Enterobacter cloacae [12] it was 0.03 µg/mL (≈ 0.0436 µM); against Pseudomonas aeruginosa [28] it was 0.008 µg/mL (≈ 0.0116 µM); in the data set on Pseudomonas aeruginosa [29] it was 0.008 µg/mL (≈ 0.0116 µM); in the data set on Providencia stuartii [15], 0.03 µg/mL (≈ 0.0436 µM). The MIC against Enterobacter cloacae [16] came to 1 µg/mL (≈ 1.45 µM); in the data set with Enterobacter cloacae [17] it was 0.06 µg/mL (≈ 0.0873 µM); against Enterobacter cloacae [24], 0.03 µg/mL (≈ 0.0436 µM); against Pseudomonas aeruginosa [5] it was 0.008 µg/mL (≈ 0.0116 µM); in the data set on Pseudomonas aeruginosa [18], 0.008 µg/mL (≈ 0.0116 µM); in the data set on Providencia stuartii [7], 2 µg/mL (≈ 2.91 µM).
`CCn1cc(C(=O)NCC2=C(C(=O)O)N3C(=O)[C@@H](NC(=O)/C(=N\OC(C)(C)C(=O)O)c4csc(N)n4)C3SC2)c(=O)c2cc(O)c(O)cc21` (some centres undefined) showed an AUC in data set [30] of 238.5 mg/h/L. Further, the half-life in data set [31] is 3.47 h. Besides, the pKa in data set [32] came to 7.2. The same compound returned an Activity in the data set listed under Homo sapiens of 99.2%. Moreover, the dose excreted in data set [21] was 13.9%. The MIC in the data set on Staphylococcus aureus [33] was determined as 16 µg/mL (≈ 22.4 µM); in the data set with Citrobacter freundii [3], 0.125 µg/mL (≈ 0.175 µM); against Citrobacter freundii [4], 0.008 µg/mL (≈ 0.0112 µM); in the data set on Enterobacter cloacae [16], 1 µg/mL (≈ 1.4 µM); in the data set on Escherichia coli [22], 0.008 µg/mL (≈ 0.0112 µM); against Enterobacter cloacae [17] it was 0.25 µg/mL (≈ 0.349 µM). For the same compound, the MIC with Enterobacter cloacae [23] was found to be 0.06 µg/mL (≈ 0.0838 µM); in the data set with Enterobacter cloacae [24] it was 0.06 µg/mL (≈ 0.0838 µM); with Escherichia coli [25] it was 0.008 µg/mL (≈ 0.0112 µM); against Pseudomonas aeruginosa [5], 0.008 µg/mL (≈ 0.0112 µM); with Pseudomonas aeruginosa [26], 0.06 µg/mL (≈ 0.0838 µM); in the data set on Pseudomonas aeruginosa [18], 0.008 µg/mL (≈ 0.0112 µM). The MIC with Pseudomonas aeruginosa [6] is 0.008 µg/mL (≈ 0.0112 µM); in the data set with Providencia stuartii [7], 8 µg/mL (≈ 11.2 µM); in the data set on Providencia stuartii [8], 0.25 µg/mL (≈ 0.349 µM); in the data set with Staphylococcus aureus [34], 16 µg/mL (≈ 22.4 µM); with Pseudomonas aeruginosa [9], 0.008 µg/mL (≈ 0.0112 µM).
